Measurements: patent publication US9949980B2, “Drugs to prevent HPV infection” (Wisconsin Alumni Research Foundation, priority 2008, dated 2018)
Entries after “also recorded” stand apart in the source; their conditions may differ.

Legend:
[1] = system: HPV11 pseudoviruses; assay: HPV11 pseudovirus infection in HaCaT cells; type: cell-based
Procedure: (§1) FIG. 4. Compounds 13 and 14 can inhibit infection by multiple anogenital HPVs. Shown are results from infection experiments in HaCaT cells monitoring the efficiency of infection by HPV16, HPV11 and HPV31 pseudovirus carrying the firefly luciferase gene in the absence (0 μM, vehicle only) or increasing concentrations (0.1 to 100 μM) of Compound 13 or 14. The Y axis is the relative efficiency of infection (squares) or cell viability (circles) as a function of drug concentration (X axis). All data points represent the average of values from triplicate samples. […] Data for HPV16 is the also plotted in FIG. 2.
(§2) Compounds 13 and 14: inhibition of infection by multiple papillomavirus genotypes. The goal of this study is to identify compounds that inhibit all sexually transmitted HPVs. For this reason, we monitored the ability of Compounds 13 and 14 to inhibit infection of two additional papillomavirus pseudoviruses that were generated using the capsid proteins of two other sexually transmitted HPVs, high risk HPV31 and low risk HPV11. […]
(§3) At 4 hours prior to exposure of cell to pseudoviruses, compounds were added to plates in 1% DMSO final concentration at the indicated amounts. […] Cell viability was assessed in parallel plates by Luminescent Cell Viability Assay (Promega Cat. #G7571).

[2] = system: HPV31 pseudoviruses; assay: HPV31 pseudovirus infection in HaCaT cells; type: cell-based
Procedure: as §1, §2, §3

[3] = system: HPV16 virus; assay: Wild type HPV16 infection in 293T cells, early viral gene expression by real time PCR; type: cell-based; details: 5 to 10 μM (FIG. 3: 10 μM), 48 hours post infection
Procedure: FIG. 3. Inhibition of infection by HPV 16 virus. Shown is the relative efficiency of infection by HPV16 virus in 293T cells as scored by quantifying early viral transcription using real time PCR for E2 (dark grey bars), E5 (white bars) and E7 (light grey bars) containing mRNAs at 48 hours post-infection in the absence (DMSO—vehicle only, values set at 100%) or the presence of the indicated compound (10 μM concentration). Data points shown are the average of triplicate sample values. The dotted line indicates the normalized value for no drug (set as 100% infection value).
The 21 selected compounds were also tested for their ability to inhibit infection by bonafide HPV16 in 293T cells by measuring early viral gene expression by real time PCR at 48 hours post infection (FIG. 3) after treatment of the cell with 5 to 10 μM of each compound. Consistently with the data of reporter gene assays, HPV early gene expression was inhibited by Compounds 4, 13, 14, 18 and 20. Given the large differences in IC50 and CD50, and the reproducible capacity to inhibit infection by HPV16 pseudovirus and HPV16 virus in different cell types, Compounds 13 and 14 were selected for further analysis.
After 2 day infection, total RNA was isolated from infected cell lysate and treated with DNase I (Promega) as previously. (Pyeon, D. et al., Establishment of human papillomavirus infection requires cell cycle progression, PLos Pathog. 2009 February; 5(2):e1000318. Epub 2009 Feb. 27). Complementary DNA (cDNA) was synthesized from the normalized total RNA with the SuperScript cDNA synthesis kit (Invitrogen). All oligonucleotide primers (0.5 μM) for PCR are previously published (Pyeon D. et al., Production of infectious human papillomavirus independently of viral replication and epithelial cell differentiation, Proc. Nat'l Acad. Sci. USA, 2005 Jun. 28; 102(26):9311-6, Epub 2005 Jun. 15) or listed in Table 2.
Conventional PCR was performed with Taq DNA polymerase (Promega) and the following cycle: denaturation at 94° C. for 5 min, 42 cycles of 94° C. for 30 sec., 55° C. for 1 min., and 72° C. for 1 min., followed by extension at 72° C. for 7 min. Final products were analyzed by 1% agarose gel electrophoresis and ethidium bromide staining. Quantitative RT-PCR was performed using QuantiTect SYBR green PCR kit (Qiagen) with the following cycle: denaturation at 95° C. for 5 min. and 40 cycles of 95° C. for 30 sec., 55° C. for 30 sec., and 72° C. for 30 sec.

[4] = system: HPV16 pseudovirus; assay: Luciferase assay: HPV16 pseudovirus with renilla luciferase reporter (HPV16wpA-RL); details: renilla luciferase reporter behind HPV16 promoter
Procedure: (§4) The protocol for the secondary screen was identical to that of the primary screen with the exception that all volumes were scaled up by a factor of four. RL activity was measured using the Renilla Luciferase Assay System (Promega).

[5] = in vitro; details: human
[6] = in vitro; details: human; remark: listed apart in the source
Procedure: as §4

Structure (SMILES) | IC50 [1] | IC50 [2] | Inhibition of HPV16 early gene expression (E2, E5, E7 mRNAs) [3] | Luciferase assay RL % Average [4] | viability at 52 h, 3.3 μM [5] | viability at 52 h, 3.3 μM [6]
CCCn1c2ccccc2c2nnc(SC(CC)C(=O)Nc3ccc(Cl)cn3)nc21 (stereo not shown) [Compound 13, N-(5-chloro-2-pyridinyl)-2-[(5-propyl-5H-[1,2,4]triazino[5,6-b]indol-3-yl)thio]butanamide] | < 0.1 µM | 0.15 µM | reproducible and significant inhibition; also recorded: inhibited | 150.17% | – | –
Cc1cc(C(c2ccc(F)cc2)c2cc(C)c(NC(=O)c3ccccc3)c(C)c2)cc(C)c1NC(=O)c1ccccc1 [Compound 14, N,N′[[(4-fluorophenyl)methylene]bis(2,6-dimethyl-4,1-phenylene)]dibenzamide] | < 0.1 µM | < 0.1 µM | reproducible and significant inhibition; also recorded: inhibited | 37.54% | 106% | 106%
